Measured values from patent US8673950B2, “Dihydrooxazol-2-amine derivatives” (Hoffmann-LaRoche Inc., priority 2010, dated 2014).
Counter-ions that a name gives are not always drawn.

Experiments:
mouse TAAR1 = mouse TAAR1 (Mus musculus (Mouse), UniProt Q923Y8); assay: Radioligand binding assay on mouse TAAR1; conditions: mouse TAAR1, membranes of stably transfected HEK-293 cells; first value of cell mouse/rat
Protocol: (§1) Construction of TAAR Expression Plasmids and Stably Transfected Cell Lines
(§2) For the construction of expression plasmids the coding sequences of human, rat and mouse TAAR 1 were amplified from genomic DNA essentially as described by Lindemann et al.. The Expand High Fidelity PCR System (Roche Diagnostics) was used with 1.5 mM Mg^2+ and purified PCR products were cloned into pCR2.1-TOPO cloning vector (Invitrogen) following the instructions of the manufacturer. PCR products were subcloned into the pIRESneo2 vector (BD Clontech, Palo Alto, Calif.), and expression vectors were sequence verified before introduction in cell lines.
(§3) HEK293 cells (ATCC # CRL-1573) were cultured essentially as described by Lindemann et al. (2005). For the generation of stably transfected cell lines HEK293 cells were transfected with the pIRESneo2 expression plasmids containing the TAAR coding sequences (described above) with Lipofectamine 2000 (Invitrogen) according to the instructions of the manufacturer, and 24 hrs post transfection the culture medium was supplemented with 1 mg/ml G418 (Sigma, Buchs, Switzerland). After a culture period of about 10 d clones were isolated, expanded and tested for responsiveness to trace amines (all compounds purchased from Sigma) with the cAMP Biotrak Enzyme immunoassay (EIA) System (Amersham) following the non-acetylation EIA procedure provided by the manufacturer.
Radioligand Binding Assay on Mouse TAAR1
(§4) Membrane Preparation and Radioligand Binding.
(§5) HEK-293 cells stably expressing mouse TAAR1 were maintained at 37° C. and 5% CO2 in DMEM high glucose medium, containing fetal calf serum (10%, heat inactivated for 30 min at 56° C.), penicillin/streptomycin (1%), and 375 μg/ml geneticin (Gibco). Cells were released from culture flasks using trypsin/EDTA, harvested, washed twice with ice-cold PBS (without Ca^2+ and Mg^2+), pelleted at 1'000 rpm for 5 min at 4° C., frozen and stored at −80° C. Frozen pellets were suspended in 20 ml HEPES-NaOH (20 mM, pH 7.4) containing 10 mM EDTA and homogenized with a Polytron (PT 6000, Kinematica) at 14'000 rpm for 20 s. The homogenate was centrifuged at 48'000×g for 30 min at 4° C. Subsequently, the supernatant was removed and discarded, and the pellet resuspended in 20 ml HEPES-NaOH (20 mM, pH 7.4) containing 0.1 mM EDTA using the Polytron (20 s at 14'000 rpm). This procedure was repeated and the final pellet resuspended in HEPES-NaOH containing 0.1 mM EDTA and homogenized using the Polytron. Typically, aliquots of 2 ml membrane portions were stored at −80° C. With each new membrane batch the dissociation constant (Kd) was determined via a saturation curve. The TAAR1 radioligand ^3[H]-(S)-4-[(ethyl-phenyl-amino)-methyl]-4,5-dihydro-oxazol-2-ylamine (described in WO 2008/098857) was used at a concentration equal to the calculated Kd value, that was usually around 0.7 nM, resulting in the binding of approximately 0.5% of the radioligand and a specific binding representing approximately 70% of the total binding. Nonspecific binding was defined as the amount of ^3[H]-(S)-4-[(ethyl-phenyl-amino)-methyl]-4,5-dihydro-oxazol-2-ylamine bound in the presence of 10 μM unlabeled ligand. All compounds were tested at a broad range of concentrations (10 μM to 10 μM) in duplicates. […] The 96 deep well plates were incubated for 1 hr at 4° C. Incubations were terminated by rapid filtration through Unifilter-96 plates (Packard Instrument Company) and glass filters GF/C (Perkin Elmer) presoaked for 1 hr in polyethylenimine (0.3%) and washed 3 times with 1 ml of cold binding buffer. After addition of 45 μl of Microscint 40 (PerkinElmer) the Unifilter-96 plate was sealed and after 1 hr the radioactivity counted using a TopCount Microplate Scintillation Counter (Packard Instrument Company).

rat TAAR1 = rat TAAR1 (Rattus norvegicus (Rat), UniProt Q923Y9); assay: Radioligand binding assay on rat TAAR1; conditions: rat TAAR1, membranes of stably transfected HEK-293 cells; second value of cell mouse/rat
rat TAAR1, sequence (Q923Y9 whole entry): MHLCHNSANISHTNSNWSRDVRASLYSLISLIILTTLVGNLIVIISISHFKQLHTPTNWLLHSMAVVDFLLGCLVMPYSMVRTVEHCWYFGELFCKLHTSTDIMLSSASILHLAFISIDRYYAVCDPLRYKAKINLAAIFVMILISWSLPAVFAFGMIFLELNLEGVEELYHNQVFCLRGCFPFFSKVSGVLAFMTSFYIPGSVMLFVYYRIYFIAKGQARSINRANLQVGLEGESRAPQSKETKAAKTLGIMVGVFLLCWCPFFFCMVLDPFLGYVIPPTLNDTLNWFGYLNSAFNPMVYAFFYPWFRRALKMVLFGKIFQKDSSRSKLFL
Protocol: as §1, §2, §3
Radioligand Binding Assay on Rat TAAR1
as §4
as §5, with “expressing rat” for “expressing mouse”, “curve. […]” for “curve. The TAAR1 radioligand ^3[H]-(S)-4-[(ethyl-phenyl-amino)-methyl]-4,5-dihydro-oxazol-2-ylamine (described in WO 2008/098857) was used at a concentration equal to the calculated Kd value, that was usually around 0.7 nM, resulting in the binding of approximately 0.5% of the radioligand and a specific binding representing approximately 70% of the total binding.”, “(10 pM” for “(10 μM”

mouse TAAR1, sequence (Q923Y8 whole entry): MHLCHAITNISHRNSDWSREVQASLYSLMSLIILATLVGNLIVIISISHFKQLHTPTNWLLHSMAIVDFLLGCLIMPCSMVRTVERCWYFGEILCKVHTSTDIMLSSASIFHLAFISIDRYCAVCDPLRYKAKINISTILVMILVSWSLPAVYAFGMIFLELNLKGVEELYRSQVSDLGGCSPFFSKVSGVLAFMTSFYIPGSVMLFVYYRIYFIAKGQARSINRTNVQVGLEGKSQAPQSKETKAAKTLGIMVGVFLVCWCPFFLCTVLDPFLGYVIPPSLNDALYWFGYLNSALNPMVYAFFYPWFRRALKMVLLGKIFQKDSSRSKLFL

Row | Ki (mouse TAAR1) | Ki (rat TAAR1) | Compound
1 | 0.0035 µM | 0.0007 µM | Cc1cccc(Nc2ccc(CC[C@H]3COC(N)=N3)cc2)n1 [Example 25, {4-[2-((S)-2-Amino-4,5-dihydro-oxazol-4-yl)-ethyl]-phenyl}-(6-methyl-pyridin-2-yl)-amine]
2 | 0.0007 µM | 0.0008 µM | NC1=N[C@@H](CCc2ccc(Nc3cccc(C(F)(F)F)n3)cc2)CO1 [Example 26, {4-[2-((S)-2-Amino-4,5-dihydro-oxazol-4-yl)-ethyl-]-phenyl}-(6-trifluoromethyl-pyridin-2-yl)-amine]
3 | 0.0306 µM | 0.0035 µM | Cc1ccc(Nc2ccc(CC[C@H]3COC(N)=N3)cc2)nc1 [Example 29, {4-[2-((8)-2-Amino-4,5-dihydro-oxazol-4-yl)-ethyl]-phenyl}-(5-methyl-pyridin-2-yl)-amine]
4 | 0.0128 µM | 0.0043 µM | N#Cc1cnc(Nc2ccc(CC[C@H]3COC(N)=N3)cc2)cn1 [Example 39, 5-{4-[2-((8)-2-Amino-4,5-dihydro-oxazol-4-yl)-ethyl]-phenylamino}-pyrazine-2-carbonitrile]
5 | 0.0024 µM | 0.001 µM | NC1=N[C@@H](CCc2ccc(Nc3nccc(C(F)(F)F)n3)cc2)CO1 [Example 40, {4-[2-((S)-2-Amino-4,5-dihydro-oxazol-4-yl)-ethyl]-phenyl}-(4-trifluoromethyl-pyrimidin-2-yl)-amine]
6 | 0.0593 µM | 0.0031 µM | NC1=N[C@@H](CCc2ccc(Nc3nccnc3Cl)cc2)CO1 [Example 41, {4-[2-((S)-2-Amino-4,5-dihydro-oxazol-4-yl)-ethyl]-phenyl}-(3-chloro-pyrazin-2-yl)-amine]
7 | 0.0008 µM | 0.0016 µM | NC1=N[C@@H](CCc2ccc(Nc3cc(C(F)(F)F)cc(Cl)n3)cc2)CO1 [Example 42, {4-[2-((S)-2-Amino-4,5-dihydro-oxazol-4-yl)-ethyl]-phenyl}-(6-chloro-4-trifluoromethyl-pyridin-2-yl)-amine]
8 | 0.107 µM | 0.0046 µM | Cc1cncc(Nc2ccc(CC[C@H]3COC(N)=N3)cc2)n1 [Example 43, {4-[2-((S)-2-Amino-4,5-dihydro-oxazol-4-yl)-ethyl]-phenyl}-(6-methyl-pyrazin-2-yl)-amine]
9 | 0.001 µM | 0.0011 µM | COc1nc(Cl)cc(Nc2ccc(CC[C@H]3COC(N)=N3)cc2)n1 [Example 44, {4-[2-((S)-2-Amino-4,5-dihydro-oxazol-4-yl)-ethyl]-phenyl}-(6-chloro-2-methoxy-pyrimidin-4-yl)-amine]

The next lines start with the molecule.

Row | Compound | Ki (mouse TAAR1) | Ki (rat TAAR1)
10 | NC1=N[C@@H](CCc2ccc(Nc3cncc(Cl)n3)cc2)CO1 [Example 27, {4-[2-((S)-2-Amino-4,5-dihydro-oxazol-4-yl)-ethyl]-phenyl}-(6-chloro-pyrazin-2-yl)-amine] | 0.0182 µM | 0.004 µM
11 | NC1=N[C@@H](CCc2ccc(Nc3cccc(Cl)n3)cc2)CO1 [Example 28, {4-[2-((8)-2-Amino-4,5-dihydro-oxazol-4-yl)-ethyl]-phenyl}-(6-chloro-pyridin-2-yl)-amine] | 0.001 µM | 0.0005 µM
12 | COc1ccc(Nc2ccc(CC[C@H]3COC(N)=N3)cc2)nc1 [Example 30, {4-[2-((S)-2-Amino-4,5-dihydro-oxazol-4-yl)-ethyl]-phenyl}-(5-methoxy-pyridin-2-yl)-amine] | 0.134 µM | 0.0083 µM
13 | N#Cc1cncc(Nc2ccc(CC[C@H]3COC(N)=N3)cc2)n1 [Example 31, 6-{4-[2-((S)-2-Amino-4,5-dihydro-oxazol-4-yl)-ethyl]-phenylamino}-pyrazine-2-carbonitrile] | 0.0133 µM | 0.0059 µM
14 | NC1=N[C@@H](CCc2ccc(Nc3cc(Cl)ncn3)cc2)CO1 [Example 32, {4-[2-((S)-2-Amino-4,5-dihydro-oxazol-4-yl)-ethyl]-phenyl}-(6-chloro-pyrimidin-4-yl)-amine] | 0.0019 µM | 0.0008 µM
15 | COc1cc(Nc2ccc(CC[C@H]3COC(N)=N3)cc2)ncn1 [Example 33, {4-[2-((S)-2-Amino-4,5-dihydro-oxazol-4-yl)-ethyl]-phenyl}-(6-methoxy-pyrimidin-4-yl)-amine] | 0.0096 µM | 0.0023 µM
16 | Cc1nccc(Nc2ccc(CC[C@H]3COC(N)=N3)cc2)n1 [Example 34, {4-[2-((S)-2-Amino-4,5-dihydro-oxazol-4-yl)-ethyl]-phenyl}-(2-methyl-pyrimidin-4-yl)-amine] | 0.0387 µM | 0.0026 µM
17 | NC1=N[C@@H](CCc2ccc(Nc3ccncn3)cc2)CO1 [Example 35, (S)-4-(4-(Pyrimidin-4-ylamino)phenethyl)-4,5-dihydrooxazol-2-amine hydrochloride] | 0.0551 µM | 0.0023 µM
18 | COc1ccnc(Nc2ccc(CC[C@H]3COC(N)=N3)cc2)n1 [Example 36, {4-[2-((S)-2-Amino-4,5-dihydro-oxazol-4-yl)-ethyl]-phenyl}-(4-methoxy-pyrimidin-2-yl)-amine] | 0.0047 µM | 0.0004 µM
19 | CCc1cnc(Nc2ccc(CC[C@H]3COC(N)=N3)cc2)nc1 [Example 37, {4-[2-((S)-2-Amino-4,5-dihydro-oxazol-4-yl)-ethyl]-phenyl}-(5-ethyl-pyrimidin-2-yl)-amine] | 0.0013 µM | 0.0012 µM
20 | COc1cnc(Nc2ccc(CC[C@H]3COC(N)=N3)cc2)nc1 [Example 38, {4-[2-((8)-2-Amino-4,5-dihydro-oxazol-4-yl)-ethyl]-phenyl}-(5-methoxy-pyrimidin-2-yl)-amine] | 0.007 µM | 0.0007 µM
21 | CSc1ccnc(Nc2ccc(CC[C@H]3COC(N)=N3)cc2)n1 [Example 45, {4-[2-((S)-2-Amino-4,5-dihydro-oxazol-4-yl)-ethyl]-phenyl}-(4-methylsulfanyl-pyrimidin-2-yl)-amine] | 0.0077 µM | 0.0013 µM
22 | Cc1cnc(Nc2ccc(CC[C@H]3COC(N)=N3)cc2)nc1 [Example 46, {4-[2-((S)-2-Amino-4,5-dihydro-oxazol-4-yl)-ethyl]-phenyl}-(5-methyl-pyrimidin-2-yl)-amine] | 0.0105 µM | 0.0012 µM
